Measured values reported in US10570179B2, “Substituted urea depsipeptide analogs as activators of the CLPP endopeptidase” (priority 2016, dated 2020).
In brackets after ≈: the same amount, converted by molar mass. Numbered stars: 1 amine (or outer) side, 2 acyl side, 3 side chain; on linkers, the order of the positions; unused ones are H or OH. Bridge positions count the residues as written; N and C are the ends. Square brackets hold non-standard residues; d marks the D form. Peptide text beside a SMILES is read from it. * marks the point of attachment. Phe(3-Me) = Cc1cccc(C[C@H](N)C(=O)O)c1; Pro(4S-Me) = C[C@@H]1CN[C@H](C(=O)O)C1; Hyp = O=C(O)[C@@H]1C[C@@H](O)CN1; aThr = C[C@H](O)[C@H](N)C(=O)O; Pip = O=C(O)[C@@H]1CCCCN1; CO = O=C([*:1])[*:2]; X2 = Fc1cc(N*)ccc1Cl

Key:
S. aureus ClpP (Sa-ClpP) = target: T1, S. aureus ClpP (Sa-ClpP) (Staphylococcus aureus, UniProt Q2G036); assay: Casein-BODIPY digestion assay (ClpP activation); assay type: biochemical
T1 construct: made in house; host or cells: E. coli BL21 (DE3)

S. aureus ΔClpP = assay: Minimal inhibitory concentration, microbroth dilution; assay type: cell-based, Staphylococcus aureus; details: MIC; ClpP inactivated
Outline: (§1)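 MICs were determined by CLSI broth microdilution, using two-fold compound dilutions from a final 200 μM and about 10^5 cfu/mL inoculum. Plates were incubated aerobically at 37 °C overnight. The MIC was read visually as the lowest concentration preventing growth.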

E. faecails = assay: as above; assay type: cell-based; details: Enterococcus faecalis; MIC; read-out: Minimal Inhibitory Concentrations (μM) E. faecails
Outline: as §1

MRSA NRS70 = assay: as above; assay type: cell-based; details: Staphylococcus aureus; MIC; read-out: Minimal Inhibitory Concentrations (μM) MRSA NRS70
Outline: as §1

S. aureus ATCC 29213 = assay: as above; assay type: cell-based; details: Staphylococcus aureus, ATCC29213; MIC; read-out: Minimal Inhibitory Concentrations (μM) S. aureus ATCC 29213
Outline: as §1

S. aureus USA 300 = assay: as above; assay type: cell-based; details: Staphylococcus aureus, USA300; MIC; read-out: Minimal Inhibitory Concentrations (μM) S. aureus USA 300
Outline: as §1

T1 sequence (Q2G036 whole entry): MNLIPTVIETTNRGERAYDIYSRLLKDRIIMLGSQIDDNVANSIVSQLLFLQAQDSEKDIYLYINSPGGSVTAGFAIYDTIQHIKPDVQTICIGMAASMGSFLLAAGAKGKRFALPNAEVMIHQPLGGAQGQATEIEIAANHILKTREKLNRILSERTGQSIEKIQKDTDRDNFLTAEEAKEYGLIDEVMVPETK

In the case of `Cc1cccc(C[C@H](NC(=O)Nc2ccc(Cl)c(F)c2)C(=O)N[C@@H]2C(=O)N3C[C@H](O)C[C@H]3C(=O)N3CCCC[C@H]3C(=O)N[C@@H](C)C(=O)N3C[C@@H](C)C[C@H]3C(=O)O[C@H]2C)c1` [Compound 77, (S)-2-(3-(4-CHLORO-3-FLUOROPHENYL)UREIDO)-N-((2S,6S,8AS,14AS,16R,20S,21S,23AS)-16-HYDROXY-2,6,21-TRIMETHYL-5,8,14,19,23-PENTAOXOOCTADECAHYDRO-1H,5H,14H,19H-PYRIDO[2,1-I]DIPYRROLO[2,1-C:2′,1′-L][1]OXA[4,7,10,13]TETRAAZACYCLOHEXADECIN-20-YL)-3-(M-TOLYL)PROPANAMIDE] ({X2-CO}-[Phe(3-Me)][aThr][Hyp][Pip]A[Pro(4S-Me)]; ester 2-C), the EC50 (S. aureus ClpP (Sa-ClpP)) is reported as 450 ± 200 nM, the “Minimal Inhibitory Concentrations (μM) S. aureus ΔClpP” value (S. aureus ΔClpP) is reported as 5 µM and the MIC (E. faecails) is reported as 1.25 µM (≈ 1.05 µg/mL). For the same compound, the MIC (MRSA NRS70) was 0.625 µM (≈ 0.525 µg/mL), the MIC (S. aureus ATCC 29213) was 0.625 µM (≈ 0.525 µg/mL) and the MIC (S. aureus USA 300) was 1.25 µM (≈ 1.05 µg/mL).
